In brackets after ≈: the same amount, converted by molar mass.
Columns and labels:
[1] = Solubility of finasteride in Unistab S-69 (dosing by HPLC); assay type: physicochemical; details: Unistab S-69 (commercial mixture of farnesol and linalool), oil or lipid
Experimental: The second embodiment of the invention is to increase the encapsulation of finasteride by the addition of a new oil in the formulation's lipid core composition in which the solubility is greater than in caprylic and capric triglycerides. To this end, Unistab® S-69, a commercial mixture, was preferentially employed and consists of farnesol and linalool, in which the solubility of finasteride is about 90 mg/mL (dosing done by HPLC). Farnesol is a sesquiterpene alcohol and linalool is a terpenic alcohol, both found in various essential oils and insoluble in water but miscible with oils and other organic solvents such as acetone and ethanol. For being volatile, Unistab® S-69 was mixed with triglycerides in a ratio of 2.3: 1 (v/v) (Unistab® S-69: triglycerides). However, this proportion, considering the saturation of finasteride in Unistab® S-69, could be employed in the preparation of a formulation with a drug concentration of 2.0 mg/ml, due to the volatility of Unistab® S-69 and to the consequent loss of oil due to the draw caused by steam during the process of solvent evaporation under reduced pressure, a formulation was prepared with a finasteride concentration of 0.5 mg/ml, in order to ensure the nanometric features of the system. This formulation comprising a new lipid core represents the second embodiment of the invention.

men aged 18 to 41 years = details: 1 mg daily, at the end of five years; cited from earlier work

Compound: CC(C)(C)NC(=O)[C@H]1CC[C@H]2[C@@H]3CC[C@H]4NC(=O)C=C[C@]4(C)[C@H]3CC[C@]12C [finasteride]
- solubility [1]: ~90 mg/mL (≈ 242 mM)
- Patients who developed baldness (men aged 18 to 41 years): 10%

Reference: patent US9895302B2, “Finasteride polymeric nanoparticle, aqueous suspension containing the same, composition for the treatment of alopecia, process of preparation of said composition, and its use” (Biolab Sanus Farmaceutica Ltda., priority 2012, dated 2018)
